Measured values: paper PMC11249646, “Small-Molecule Disruptors of the Interaction between Calcium- and Integrin-Binding Protein 1 and Integrin αIIbβ3 as Novel Antiplatelet Agents” (ACS Pharmacology & Translational Science, 2024)
Read-outs that look alike come from different tables or passages of the source.

Molecular target: T1, CIB1 and αIIb interaction (CIB1-GST : F-αIIb peptide) (Homo sapiens, UniProt Q99828)
T1 construct: made in house; host or cells: BL-21 plus RIL cells (E. coli)
T1 sequence (Q99828 1-191): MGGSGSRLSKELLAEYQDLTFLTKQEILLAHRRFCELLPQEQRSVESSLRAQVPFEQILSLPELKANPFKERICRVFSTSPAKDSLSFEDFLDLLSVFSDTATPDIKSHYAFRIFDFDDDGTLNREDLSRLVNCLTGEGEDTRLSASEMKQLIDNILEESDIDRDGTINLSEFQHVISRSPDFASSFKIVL
Test: FP assay, 1536-well qHTS format (primary and confirmatory screen)
Format: binding
Conditions: for Efficacy (%): negative = inhibition; for Curve Class: negative sign = inhibitory curve; for IC50: read-out: IC50

[1] = qHTS primary screen hits, Table S2
[2] = qHTS primary screen hits, Table S2, several classes where COUNT > 1
[3] = qHTS primary screen of LOPAC/NPACT libraries

Efficacy (%) [1] | Curve Class [2] | IC50 [1] | Efficacy (%) [3] | Curve Class [3] | IC50 [3] | Structure (SMILES) | other results
-21% | -2.4 | 44.7 µM |  |  |  | O=C(O)c1ccc(S(=O)(=O)N[C@@H](Cc2ccc(O)cc2)C(=O)O)cc1 [NCGC00161808-01] | 
 |  |  | -13% | -2.4 | 70.8 µM | CN(C)CC/C=C1/c2ccccc2Sc2cc(Cl)ccc21.Cl [NCGC00162079-02] | 
 |  |  | -10% | -1.4 | 10 µM | Cc1cc(Cn2cnc3c2C[C@@H](C(=O)O)N(C(=O)C(c2ccccc2)c2ccccc2)C3)ccc1N [NCGC00162092-02] | 
 |  |  | -35% | -2.4 | 56.2 µM | C=CCc1ccccc1OCC(O)CN[C@]1(C)CCC[C@H](C(C)(C)NC(=O)CBr)C1 (some centres unmarked) [NCGC00162095-02] | 
 |  |  | -20% | -2.2 | 50.1 µM | NC(=O)c1cc[n+](CC2=C(C(=O)O)N3C(=O)[C@@H](NC(=O)[C@@H](c4ccccc4)S(=O)(=O)[O-])[C@H]3SC2)cc1 [NCGC00162106-03] | 
 |  |  | -30% | -2.2 | 56.2 µM | CC(C)c1cc(F)cc2c1C[C@](CCN(C)CCCc1nc3ccccc3[nH]1)(OC(=O)C1CC1)CC2 [NCGC00162214-02] | 
 |  |  | -19% | -2.2 | 44.7 µM | CCCCCN(CCCCC)C(=O)C(CCC(=O)O)NC(=O)c1ccc(Cl)c(Cl)c1 (centres unmarked) [NCGC00162232-03] | 
 |  |  | -29% | -1.4 | 15.8 µM | CC(C)c1ccc2c(c1)c(SC(C)(C)C)c(CC(C)(C)C(=O)O)n2Cc1ccc(Cl)cc1 [NCGC00162249-03] | 
 |  |  | -10% | -1.4 | 8.9 µM | CCn1cc(C(=O)O)c(=O)c2ccc(C)nc21 [NCGC00162271-02] | 
 |  |  | -28% | -2.4 | 56.2 µM | CN(C)CC1CCn2c(c(C3=C(c4cn(C)c5ccccc45)C(=O)NC3=O)c3ccccc32)C1.Cl (centres unmarked) [NCGC00163696-04] | 
-38% |  | 50.1 µM |  |  |  | CCCCCCCCCCCC[N+](C)(C)Cc1ccccc1.[Cl-] [NCGC00164245-03] | Curve Class [1]: -2.2
-50% |  | 44.7 µM |  |  |  | Cc1ccc(O)c2ncccc12 [NCGC00164506-02] | Curve Class [1]: -2.2
-28% | -2.4 | 50.1 µM |  |  |  | CC(C)=CCC1C(=O)N(c2ccccc2)N(c2ccccc2)C1=O [NCGC00164582-02] | 
-35% | -2.2 | 56.2 µM |  |  |  | OCCCc1ccccc1 [NCGC00165987-03] | 
-21% |  | 44.7 µM |  |  |  | O=C(O)c1ccccn1 [NCGC00165993-02] | Curve Class [1]: -2.4
-45% | -3 | 89.1 µM |  |  |  | CCCCCCCCCCCCCCCC[N+](C)(C)CC.[Br-] [NCGC00166120-02] | 
-57% | -3 | 89.1 µM |  |  |  | CCN(CC)CCCN(c1ccccc1)C1Cc2ccccc2C1.Cl [NCGC00167576-02] | 
 |  |  | -11% | -1.4 | 3.2 µM | COc1cc(SC)ccc1C(=O)N1CCC(Cc2ccccc2)CC1 [NCGC00167816-02] | 
-28% |  | 50.1 µM |  |  |  | O=C(O)C1NCc2[nH]cnc2C1c1ccccc1 (centres unmarked) [NCGC00167998-01] | Curve Class [1]: -2.4
 |  |  | -26% | -2.4 | 44.7 µM | CC(C)=CCc1ccc(Oc2c(O)cc(C)cc2CO)c(C(=O)O)c1O [NCGC00169025-02] | 
 |  |  | -27% | -1.4 | 25.1 µM | C=CC/C=C\C/C=C\CCCCCCCc1cccc(O)c1C(=O)O [NCGC00169660-02] | 
-32% | -2.4 | 44.7 µM |  |  |  | O.O=C(O)[C@@H]1[C@H]2C[C@H]3c4[nH]c5ccccc5c4CCN3C[C@@H]2CC[C@@H]1O [NCGC00178432-05] | 
-101% |  | 1.1 µM |  |  |  | C[n+]1c2cc(N)ccc2cc2ccc(N)cc21 [NCGC00178831-03] | Curve Class [1]: -1.3
 |  |  | -24% | -2.2 | 50.1 µM | CC(C)NC[C@@H](O)c1ccc(O)c(O)c1 [NCGC00179436-02] | 
-140% | -1.1 | 2.8 µM |  |  |  | CCCC(=O)OC[C@@H](OC(=O)CCC)[C@@H](OC(=O)CCC)[C@H](Cn1c2nc(=O)[nH]c(=O)c-2nc2cc(C)c(C)cc21)OC(=O)CCC [NCGC00181300-01] | 
-24% | -2.4 | 79.4 µM |  |  |  | CN(C)c1ccc(-c2ccnc(O)c2N)cc1 [NCGC00181386-01] | 

The next lines start with the molecule.

Structure (SMILES) | Efficacy (%) [1] | Curve Class [2] | IC50 [1] | Efficacy (%) [3] | Curve Class [3] | IC50 [3] | other results
CO/N=C(\C(=O)N[C@@H]1C(=O)N2C(C(=O)O)=C(CSc3nc(=O)c(O)nn3C)CSC12)c1csc(N)n1 (some centres unmarked) [NCGC00162111-02] |  |  |  | -18% | -1.2 | 20 µM | 
OCC1O[C@H]([S-])[C@H](O)[C@@H](O)[C@@H]1O.[Au+] (some centres unmarked) [NCGC00162223-02] |  |  |  | -26% | -3 | 89.1 µM | 
N.N.N.N.N.N.N.N.N.N.N.N.N.N.O.O.[Ru].[Ru].[Ru] [NCGC00162333-02] |  |  |  | -26% | -2.2 | 56.2 µM | 
CCCCCCCCOc1ccccc1C(=O)Nc1ccc(C(=O)OCC[N+](C)(CC)CC)cc1.[Br-] [NCGC00163507-03] |  |  |  |  |  |  | Efficacy (%) (qHTS FP screen hits, Table S2): -39%; Curve Class (qHTS FP screen hits, Table S2, one class per curve where COUNT > 1): -1.2; IC50 (qHTS FP screen hits, Table S2): 22.4 µM
CS(=O)(=O)c1ccc(C(=O)C2C(=O)CCCC2=O)c([N+](=O)[O-])c1 [NCGC00163843-03] | -30% | -2.4 | 126 µM |  |  |  | 
C[C@]12CC[C@@H]3c4ccc(OC(=O)N(CCCl)CCCl)cc4CC[C@H]3[C@@H]1CC[C@@H]2O [NCGC00164581-02] | -41% | -2.2 | 50.1 µM |  |  |  | 
COc1cc(/C=C(\C#N)C(=O)Nc2nnc(C(F)(F)F)s2)ccc1OCc1ccc(C(F)(F)F)cc1C(F)(F)F [NCGC00165952-02] |  |  |  | -19% | -1.4 | 5.6 µM | 
Cl.Nc1ccc2cc3ccc(N)cc3nc2c1.Nc1ccc2cc3ccc(N)cc3nc2c1.O=S(=O)(O)O [NCGC00166245-04] | -130% | -1.1 | 2.2 µM |  |  |  | 
CC[C@]1(O)CC[C@H]2[C@@H]3CCC4=CCCC[C@@H]4[C@H]3CC[C@@]21C [NCGC00167514-02] | -100% | -1.1 | 31.6 µM |  |  |  | 
COc1ccc2[nH]c([S+]([O-])Cc3ncc(C)c(OC)c3C)nc2n1 (centres unmarked) [NCGC00167521-02] |  |  |  |  |  |  | Efficacy (%) (qHTS FP screen hits, Table S2): -34%; IC50 (qHTS FP screen hits, Table S2): 47.4 µM
Nc1ccncc1N [NCGC00167560-02] | -26% | -2.4 | 79.4 µM |  |  |  | 
CN1CCN(c2ccc(Nc3c4ccccc4nc4ccccc34)cc2)CC1.O=C(O)C(F)(F)F [NCGC00167823-03] | -25% | -2.4 | 56.2 µM |  |  |  | 
COc1cccc2c1C(=O)c1c(O)c3c(c(O)c1C2=O)C[C@@](O)(C(=O)CO)C[C@@H]3O[C@H]1C[C@H](N)[C@H](O[C@@H]2CCCCO2)[C@H](C)O1 [NCGC00167982-02] | -42% |  | 7.7 µM |  |  |  | 
CCN(CC)C(=O)[C@@H]1C=C2c3cccc4[nH]cc(c34)C[C@H]2N(C)C1 [NCGC00168265-02] | -141% |  | 63.1 µM |  |  |  | Curve Class [1]: -1.1
C=C1C(=O)O[C@H]2C3=C(C)CCC[C@]3(C)C(=O)C[C@@H]12 [NCGC00168931-02] |  |  |  | -27% | -2.4 | 56.2 µM | 
O=C1OCc2cc3cccc(O[C@@H]4O[C@H](CO)[C@@H](O)[C@H](O)[C@H]4O)c3c(O)c21 [NCGC00169010-02] |  |  |  | -30% | -2.4 | 22.4 µM | 
C=C1C(=O)O[C@H]2[C@H]1[C@@H](OC(=O)C(C)CO)C[C@@]1(C)[C@H](O)CCC(=O)[C@H]21 (some centres unmarked) [NCGC00169369-02] |  |  |  | -20% | -1.4 | 22.4 µM | 
CC1CCCC[C@H]2C(=O)C=C[C@H](O)[C@@H]2CC(=O)O1 (some centres unmarked) [NCGC00169882-02] | -82% |  | 28.2 µM |  |  |  | Curve Class [1]: -1.2
Cl.Cl.O=C(O)c1cn(-c2ccc(F)cc2)c2cc(N3CCNCC3)c(F)cc2c1=O [NCGC00177995-02] | -41% | -3 | 39.8 µM |  |  |  | 
C=C1c2cccc(O)c2C(O)=C2C(=O)[C@]3(O)C(O)=C(C(N)=O)C(=O)[C@@H](N(C)C)[C@@H]3[C@@H](O)[C@H]12.Cl [NCGC00179358-04] | -53% | -2.4 | 56.2 µM |  |  |  | 
O=C(N/N=C/c1ccc([N+](=O)[O-])o1)c1ccc(O)cc1 [NCGC00179496-04] |  |  | 44.7 µM |  |  |  | 
CCN(CC)C(=O)N[C@@H]1C=C2c3cccc4[nH]cc(c34)C[C@@H]2N(C)C1 [NCGC00179663-03] | -60% | -2.4 | 50.1 µM |  |  |  | 
C=C1C(=O)O[C@@H]2[C@H]1[C@H](O)C[C@]1(C)[C@@H](O)CC=C(C)[C@@H]21 [NCGC00180848-02] |  |  |  | -29% | -2.4 | 20 µM | 
